# According to patent US12660819B2, “Herbicidal derivatives” (SYNGENTA CROP PROTECTION AG, priority 2020, dated 2026):
# Key:
# Type in all cases: in vivo
# [1] = system: Amaranthus retoflexus (AMARE); assay: Pre-emergence Test (glasshouse, percentage damage to the plant); settings: 1000 g/ha unless otherwise stated, Amaranthus retoflexus
# [2] = system: Amaranthus palmeri (AMAPA); assay: as above; settings: 1000 g/ha unless otherwise stated, Amaranthus palmeri
# [3] = system: Echinochloa crus-galli (ECHCG); assay: as above; settings: 1000 g/ha unless otherwise stated, Echinochloa crus-galli
# [4] = system: Zea mays (ZEAMX); assay: as above; settings: 1000 g/ha unless otherwise stated, Zea mays
# [5] = system: Zea mays (ZEAMX); assay: Post-emergence Test (glasshouse, percentage damage to the plant); settings: post-emergence; 1000 g/ha unless otherwise stated; evaluated after 13 days
# Procedure, shortened: (§1)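 Seeds sown in pots in glasshouse (24/16 °C day/night, 14 h light, 65% humidity), then sprayed with compound at 1000 g/ha unless stated, from acetone/water 50:50 with 0.5% Tween 20. Damage assessed 13 days later on five-point scale (1=0–20% to 5=81–100%).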
# [6] = system: Amaranthus palmeri (AMAPA); assay: as above; settings: post-emergence; 1000 g/ha unless otherwise stated; evaluated after 13 days
# Procedure, shortened: (§2)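 Rate 1000 g/ha unless stated otherwise. Vehicle: acetone/water 50:50 with 0.5% Tween 20, diluted into aqueous spray. Timing: spray after sowing, read 13 days later. Score: 5=81-100%, 4=61-80%, 3=41-60%, 2=21-40%, 1=0-20% damage.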
# [7] = system: Setaria faberi (SETFA); assay: as above; settings: post-emergence; 1000 g/ha unless otherwise stated; evaluated after 13 days
# Procedure, shortened: as §1
# [8] = system: Amaranthus retoflexus (AMARE); assay: as above; settings: post-emergence; 1000 g/ha unless otherwise stated; evaluated after 13 days
# Procedure, shortened: as §2
# [9] = system: Echinochloa crus-galli (ECHCG); assay: as above; settings: post-emergence; 1000 g/ha unless otherwise stated; evaluated after 13 days
# Procedure, shortened: as §2
# [10] = system: Ipomoea hederacea (IPOHE); assay: as above; settings: post-emergence; 1000 g/ha unless otherwise stated; evaluated after 13 days
# Procedure, shortened: as §1
# [11] = system: Setaria faberi (SETFA); assay: Pre-emergence Test (glasshouse, percentage damage to the plant); settings: 1000 g/ha unless otherwise stated, Setaria faberi
# [12] = system: Ipomoea hederacea (IPOHE); assay: as above; settings: 1000 g/ha unless otherwise stated, Ipomoea hederacea
Structure (SMILES),"percentage damage to the plant, AMARE (five-point scale) [1]","percentage damage to the plant, AMAPA (five-point scale) [2]","percentage damage to the plant, ECHCG (five-point scale) [3]","percentage damage to the plant, ZEAMX (five-point scale) [4]","ZEAMX, percentage damage caused to the plant (five-point scale) [5]","AMAPA, percentage damage caused to the plant (five-point scale) [6]","SETFA, percentage damage caused to the plant (five-point scale) [7]","AMARE, percentage damage caused to the plant (five-point scale) [8]","ECHCG, percentage damage caused to the plant (five-point scale) [9]","IPOHE, percentage damage caused to the plant (five-point scale) [10]","percentage damage to the plant, SETFA (five-point scale) [11]","percentage damage to the plant, IPOHE (five-point scale) [12]"
"CCn1c(C)c(-c2ccc(Cl)cc2Cl)c(=O)c(C(=O)OC)c1-c1cnc(Cl)c(Cl)c1 [Compound 214, methyl 5-(2,4-dichlorophenyl)-2-(5,6-dichloro-3-pyridyl)-1-ethyl-6-methyl-4-oxo-pyridine-3-carboxylate]",0,0,0,0,1 (1=0-20%),2 (2=21-40%),1 (1=0-20%),2 (2=21-40%),0,0,0,0
"CCn1c(C)c(-c2ccc(Cl)cc2)c(=O)c(C(=O)OC)c1-c1cnc(Cl)c(Cl)c1 [Compound 215, methyl 5-(4-chlorophenyl)-2-(5,6-dichloro-3-pyridyl)-1-ethyl-6-methyl-4-oxo-pyridine-3-carboxylate]",4 (4=61-80%),3 (3=41-60%),2 (2=21-40%),0,3 (3=41-60%),4 (4=61-80%),3 (3=41-60%),4 (4=61-80%),3 (3=41-60%),1 (1=0-20%),4 (4=61-80%),1 (1=0-20%)
"CCn1c(CBr)c(-c2ccc(Cl)cc2)c(=O)c(C(=O)OC)c1-c1ccc(Cl)c(Cl)c1 [Compound 218, methyl 6-(bromomethyl)-5-(4-chlorophenyl)-2-(3,4-dichlorophenyl)-1-ethyl-4-oxo-pyridine-3-carboxylate]",0,0,0,0,1 (1=0-20%),3 (3=41-60%),2 (2=21-40%),3 (3=41-60%),1 (1=0-20%),0,0,0
"CCn1c(C)c(-c2ccc3ccccc3n2)c(=O)c(C(=O)O)c1-c1ccc(Cl)c(Cl)c1 [Compound 219, 2-(3,4-dichlorophenyl)-1-ethyl-6-methyl-4-oxo-5-(2-quinolyl)pyridine-3-carboxylic acid]",0,1 (1=0-20%),0,0,0,3 (3=41-60%),1 (1=0-20%),3 (3=41-60%),1 (1=0-20%),3 (3=41-60%),1 (1=0-20%),0
"CCn1c(C)c(-c2ccc(Cl)cc2F)c(=O)c(C(=O)O)c1-c1cnc(Cl)c(Cl)c1 [Compound 242, 5-(4-chloro-2-fluoro-phenyl)-2-(5,6-dichloro-3-pyridyl)-1-ethyl-6-methyl-4-oxo-pyridine-3-carboxylic acid]",4 (4=61-80%),5 (5=81-100%),5 (5=81-100%),2 (2=21-40%),4 (4=61-80%),5 (5=81-100%),5 (5=81-100%),5 (5=81-100%),5 (5=81-100%),4 (4=61-80%),5 (5=81-100%),4 (4=61-80%)
"CCn1c(C)c(-c2cc(OCCOC)c(Cl)cc2F)c(=O)c(C(=O)O)c1-c1ccc(Cl)c(Cl)c1 [Compound 244, 5-[4-chloro-2-fluoro-5-(2-methoxyethoxy)phenyl]-2-(3,4-dichlorophenyl)-1-ethyl-6-methyl-4-oxo-pyridine-3-carboxylic acid]",5 (5=81-100%),5 (5=81-100%),5 (5=81-100%),0,5 (5=81-100%),5 (5=81-100%),5 (5=81-100%),5 (5=81-100%),5 (5=81-100%),3 (3=41-60%),5 (5=81-100%),3 (3=41-60%)
"CCn1c(C)c(-c2cc(OC(C)C)c(Cl)cc2F)c(=O)c(C(=O)O)c1-c1ccc(Cl)c(Cl)c1 [Compound 245, 5-(4-chloro-2-fluoro-5-isopropoxy-phenyl)-2-(3,4-dichlorophenyl)-1-ethyl-6-methyl-4-oxo-pyridine-3-carboxylic acid]",5 (5=81-100%),5 (5=81-100%),5 (5=81-100%),0,3 (3=41-60%),5 (5=81-100%),5 (5=81-100%),5 (5=81-100%),5 (5=81-100%),4 (4=61-80%),5 (5=81-100%),2 (2=21-40%)
"CCn1c(C)c(-c2cc(OCC3CC3)c(Cl)cc2F)c(=O)c(C(=O)O)c1-c1ccc(Cl)c(Cl)c1 [Compound 246, 5-[4-chloro-5-(cyclopropylmethoxy)-2-fluoro-phenyl]-2-(3,4-dichlorophenyl)-1-ethyl-6-methyl-4-oxo-pyridine-3-carboxylic acid]",5 (5=81-100%),5 (5=81-100%),4 (4=61-80%),0,3 (3=41-60%),5 (5=81-100%),3 (3=41-60%),5 (5=81-100%),4 (4=61-80%),2 (2=21-40%),2 (2=21-40%),0
"Cc1c(-c2ccc(Cl)cc2Cl)c(=O)c(C(=O)O)c(-c2ccc(Cl)c(Cl)c2)n1C [Compound 251, 5-(2,4-dichlorophenyl)-2-(3,4-dichlorophenyl)-1,6-dimethyl-4-oxo-pyridine-3-carboxylic acid]",1 (1=0-20%),2 (2=21-40%),0,0,1 (1=0-20%),3 (3=41-60%),0,4 (4=61-80%),1 (1=0-20%),0,0,0
